Test results published in paper PMC5304190, “Inhibitory effects of cholinesterase inhibitor donepezil on the Kv1.5 potassium channel” (Scientific Reports, 2017).

Target: T1, Kv1.5 (Rattus norvegicus, UniProt P19024)
T1 construct: gene Kcna5; Rat Kv1.5 in pEYFP-N1 vector, expressed in HEK293 cells
Assay: whole-cell patch clamp of Kv1.[…] expressed in HEK293 cells
Type: cell-based

T1 sequence (P19024 whole entry): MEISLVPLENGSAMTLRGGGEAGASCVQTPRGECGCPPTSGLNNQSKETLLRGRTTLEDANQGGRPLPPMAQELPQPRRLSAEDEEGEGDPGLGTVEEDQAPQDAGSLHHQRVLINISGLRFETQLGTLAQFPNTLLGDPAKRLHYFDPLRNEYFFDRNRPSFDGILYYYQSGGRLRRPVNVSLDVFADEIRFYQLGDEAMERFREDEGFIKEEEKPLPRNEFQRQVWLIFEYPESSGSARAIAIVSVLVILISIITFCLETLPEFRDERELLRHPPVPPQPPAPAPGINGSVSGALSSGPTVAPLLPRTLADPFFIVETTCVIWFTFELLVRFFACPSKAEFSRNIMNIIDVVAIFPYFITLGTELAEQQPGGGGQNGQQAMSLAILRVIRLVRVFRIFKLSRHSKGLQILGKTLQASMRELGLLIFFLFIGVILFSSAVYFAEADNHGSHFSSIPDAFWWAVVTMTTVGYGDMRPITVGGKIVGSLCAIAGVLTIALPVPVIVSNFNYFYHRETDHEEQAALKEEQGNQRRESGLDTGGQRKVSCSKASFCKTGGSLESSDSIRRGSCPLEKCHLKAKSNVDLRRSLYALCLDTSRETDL

## COc1cc2c(cc1OC)C(=O)C(CC1CCN(Cc3ccccc3)CC1)C2 (stereo not shown) [donepezil]
  IC50: 72.5 ± 0.5 µM
